# Experimental data as given in ChEMBL document CHEMBL1201861, “Genomics of Drug Sensitity in Cancer screening data, Wellcome Trust Sanger Institute”.
# Key:
# Test in all cases: cells
# Settings in all cases: Homo sapiens
# [1] = system: NCI-H187; assay type: functional, cell-based;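 note: growth inhibition of NCI-H187 cells, read out as cell viability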
# Description: SANGER: Inhibition of human NCI-H187 cell growth in a cell viability assay.
# [2] = system: WSU-NHL; assay type: functional, cell-based;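 note: growth inhibition of human WSU-NHL cells, read out with a cell viability assay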
# Description: SANGER: Inhibition of human WSU-NHL cell growth in a cell viability assay.
# [3] = system: ARH-77; assay type: functional, cell-based;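 note: growth inhibition of ARH-77 cells, read out by a cell viability assay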
# Description: SANGER: Inhibition of human ARH-77 cell growth in a cell viability assay.
# [4] = system: NCI-H2196; assay type: functional, cell-based;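 note: cell viability assay used as the readout of growth inhibition in NCI-H2196 cells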
# Description: SANGER: Inhibition of human NCI-H2196 cell growth in a cell viability assay.
# [5] = system: NB7; assay type: functional, cell-based;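 note: growth inhibition of NB7 cells, read out with a cell viability assay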
# Description: SANGER: Inhibition of human NB7 cell growth in a cell viability assay.
# [6] = system: SCLC-21H; assay type: functional, cell-based;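 note: growth inhibition of cultured human SCLC-21H cells, read out with a cell viability assay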
# Description: SANGER: Inhibition of human SCLC-21H cell growth in a cell viability assay.
# [7] = system: CHP-126; assay type: functional, cell-based
# Description: SANGER: Inhibition of human CHP-126 cell growth in a cell viability assay.
# [8] = system: THP-1; assay type: functional, cell-based;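 note: growth inhibition of THP-1 cells, read out via a cell viability assay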
# Description: SANGER: Inhibition of human THP-1 cell growth in a cell viability assay.
# [9] = system: NCI-H2171; assay type: functional, cell-based;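 note: growth inhibition of human NCI-H2171 cells, read out by a cell viability assay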
# Description: SANGER: Inhibition of human NCI-H2171 cell growth in a cell viability assay.
# [10] = system: U-698-M; assay type: functional, cell-based
# Description: SANGER: Inhibition of human U-698-M cell growth in a cell viability assay.
# [11] = system: SIMA; assay type: functional, cell-based;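 note: growth inhibition of SIMA cells, measured with a cell viability readout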
# Description: SANGER: Inhibition of human SIMA cell growth in a cell viability assay.
# [12] = system: K052; assay type: functional, cell-based;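 note: Read-out from a cell viability assay, IC50 reflecting suppression of K052 cell growth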
# Description: SANGER: Inhibition of human K052 cell growth in a cell viability assay.
# [13] = system: ECC4; assay type: functional, cell-based;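 note: growth inhibition of ECC4 cells, read out with a cell viability assay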
# Description: SANGER: Inhibition of human ECC4 cell growth in a cell viability assay.
# [14] = system: EB2; assay type: functional, cell-based;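 note: growth inhibition of EB2 cells, read out with a cell viability assay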
# Description: SANGER: Inhibition of human EB2 cell growth in a cell viability assay.
# [15] = system: NALM-6; assay type: functional, cell-based;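 note: growth inhibition of NALM-6 cells, read out with a cell viability assay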
# Description: SANGER: Inhibition of human NALM-6 cell growth in a cell viability assay.
# [16] = system: KYSE-140; assay type: functional, cell-based;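 note: cell viability assay measuring growth inhibition in human KYSE-140 cells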
# Description: SANGER: Inhibition of human KYSE-140 cell growth in a cell viability assay.
# [17] = system: MEL-HO; assay type: functional, cell-based
# Description: SANGER: Inhibition of human MEL-HO cell growth in a cell viability assay.
# [18] = system: GMS-10; assay type: functional, cell-based;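 note: growth inhibition of GMS-10 cells, read out as cell viability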
# Description: SANGER: Inhibition of human GMS-10 cell growth in a cell viability assay.
# [19] = system: M14; assay type: functional, cell-based;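 note: growth inhibition of M14 cells, read out with a cell viability assay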
# Description: SANGER: Inhibition of human M14 cell growth in a cell viability assay.
# [20] = system: PANC-03-27; assay type: functional, cell-based
# Description: SANGER: Inhibition of human PANC-03-27 cell growth in a cell viability assay.
# [21] = system: A-427; assay type: functional, cell-based;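 note: growth inhibition of human A-427 cells, read out by a cell viability assay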
# Description: SANGER: Inhibition of human A427 cell growth in a cell viability assay.
# [22] = system: Panc1005; assay type: functional, cell-based;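 note: growth inhibition of human PANC-10-05 cells, measured by a cell viability assay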
# Description: SANGER: Inhibition of human PANC-10-05 cell growth in a cell viability assay.
# [23] = system: HuCCT-1; assay type: functional, cell-based, HuCCT1;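 note: growth inhibition of HuCCT-1 cells, read out by a cell viability assay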
# Description: SANGER: Inhibition of human HuCCT1 cell growth in a cell viability assay.
# [24] = system: CAPAN-1; assay type: functional, cell-based;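 note: growth suppression of CAPAN-1 cells, read out by a cell viability assay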
# Description: SANGER: Inhibition of human CAPAN-1 cell growth in a cell viability assay.
# [25] = system: 786-0; assay type: functional, cell-based
# Description: SANGER: Inhibition of human 786-0 cell growth in a cell viability assay.
# [26] = system: OVCAR-5; assay type: functional, cell-based;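 note: growth inhibition of human OVCAR-5 cells, read out with a cell viability assay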
# Description: SANGER: Inhibition of human OVCAR-5 cell growth in a cell viability assay.
# [27] = system: EFO-21; assay type: functional, cell-based;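 note: growth inhibition of EFO-21 cells measured with a viability assay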
# Description: SANGER: Inhibition of human EFO-21 cell growth in a cell viability assay.
# [28] = system: COLO-679; assay type: functional, cell-based
# Description: SANGER: Inhibition of human COLO-679 cell growth in a cell viability assay.
# [29] = system: NCI-H2342; assay type: functional, cell-based;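 note: growth inhibition of the cancer cell line, determined with a cell viability assay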
# Description: SANGER: Inhibition of human NCI-H2342 cell growth in a cell viability assay.
# [30] = system: SKG-IIIa; assay type: functional, cell-based;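 note: cell growth inhibition, read out with a cell viability assay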
# Description: SANGER: Inhibition of human SKG-IIIa cell growth in a cell viability assay.
# [31] = system: SW1417; assay type: functional, cell-based;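 note: growth inhibition of human SW1417 cells, read out with a cell viability assay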
# Description: SANGER: Inhibition of human SW1417 cell growth in a cell viability assay.
# [32] = system: BCPAP; assay type: functional, cell-based;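 note: growth inhibition of BCPAP cells, read out in a cell viability assay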
# Description: SANGER: Inhibition of human BCPAP cell growth in a cell viability assay.
# [33] = system: MCF7; assay type: functional, cell-based;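 note: growth inhibition of human MCF7 cells, read out with a cell viability assay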
# Description: SANGER: Inhibition of human MCF7 cell growth in a cell viability assay.
# [34] = system: RCM-1; assay type: functional, cell-based;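 note: growth inhibition of the RCM-1 line, determined with a cell viability readout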
# Description: SANGER: Inhibition of human RCM-1 cell growth in a cell viability assay.
# [35] = system: CAKI-1; assay type: functional, cell-based;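 note: growth inhibition of CAKI-1 cells, measured by a cell viability assay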
# Description: SANGER: Inhibition of human CAKI-1 cell growth in a cell viability assay.
# [36] = system: T84; assay type: functional, cell-based;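 note: growth inhibition measured with a cell viability readout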
# Description: SANGER: Inhibition of human T84 cell growth in a cell viability assay.
# [37] = system: SK-MEL-30; assay type: functional, cell-based;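 note: growth inhibition of SK-MEL-30 cells, determined with a cell viability assay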
# Description: SANGER: Inhibition of human SK-MEL-30 cell growth in a cell viability assay.
# [38] = system: BPH-1; assay type: functional, cell-based;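 note: cell viability assay measuring growth inhibition of human BPH-1 cells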
# Description: SANGER: Inhibition of human BPH-1 cell growth in a cell viability assay.
# [39] = system: NCI-H2170; assay type: functional, cell-based;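 note: cell viability assay measuring growth inhibition of human NCI-H2170 cancer cells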
# Description: SANGER: Inhibition of human NCI-H2170 cell growth in a cell viability assay.
# [40] = system: CAL-120; assay type: functional, cell-based;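 note: cell growth inhibition, read out as cell viability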
# Description: SANGER: Inhibition of human CAL-120 cell growth in a cell viability assay.
# [41] = system: SK-MEL-28; assay type: functional, cell-based;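 note: growth inhibition of human SK-MEL-28 cells, read out with a cell viability assay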
# Description: SANGER: Inhibition of human SK-MEL-28 cell growth in a cell viability assay.
# [42] = system: BHY; assay type: functional, cell-based;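 note: cell growth inhibition read out by a viability assay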
# Description: SANGER: Inhibition of human BHY cell growth in a cell viability assay.
# [43] = system: HuP-T4; assay type: functional, cell-based;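 note: cell viability assay measuring how much HuP-T4 cell growth is inhibited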
# Description: SANGER: Inhibition of human HuP-T4 cell growth in a cell viability assay.
# [44] = system: KU-19-19; assay type: functional, cell-based
# Description: SANGER: Inhibition of human KU-19-19 cell growth in a cell viability assay.
# [45] = system: SW13; assay type: functional, cell-based;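 note: IC50 is inhibition of SW13 cell growth, read out with a cell viability assay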
# Description: SANGER: Inhibition of human SW13 cell growth in a cell viability assay.
# [46] = system: HCC1419; assay type: functional, cell-based;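 note: growth inhibition of human HCC1419 cells, read out as cell viability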
# Description: SANGER: Inhibition of human HCC1419 cell growth in a cell viability assay.
# [47] = system: LK-2; assay type: functional, cell-based;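 note: growth inhibition of LK-2 cells, read out with a viability assay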
# Description: SANGER: Inhibition of human LK-2 cell growth in a cell viability assay.
# [48] = system: Daoy; assay type: functional, cell-based;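 note: daoy cell growth inhibition, read out as cell viability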
# Description: SANGER: Inhibition of human Daoy cell growth in a cell viability assay.
# [49] = system: PC-3; assay type: functional, cell-based;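 note: cell viability assay measuring growth inhibition of PC-3 cells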
# Description: SANGER: Inhibition of human PC-3 cell growth in a cell viability assay.
# [50] = system: CHL-1; assay type: functional, cell-based;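 note: cell growth inhibition, read out with a cell viability assay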
# Description: SANGER: Inhibition of human CHL-1 cell growth in a cell viability assay.
# [51] = system: ACHN; assay type: functional, cell-based;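 note: cell viability read-out used to gauge how strongly growth of human ACHN cells is suppressed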
# Description: SANGER: Inhibition of human ACHN cell growth in a cell viability assay.
# [52] = system: NCI-H727; assay type: functional, cell-based;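 note: growth inhibition of human NCI-H727 cells, read out with a cell viability assay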
# Description: SANGER: Inhibition of human NCI-H727 cell growth in a cell viability assay.
# [53] = system: FaDu; assay type: functional, cell-based;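 note: cell viability readout of growth inhibition in FaDu cells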
# Description: SANGER: Inhibition of human FADU cell growth in a cell viability assay.
# [54] = system: VM-CUB-1; assay type: functional, cell-based;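 note: cell viability assay measuring growth inhibition of the human VM-CUB-1 cell line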
# Description: SANGER: Inhibition of human VM-CUB-1 cell growth in a cell viability assay.
# [55] = system: NCI-H441; assay type: functional, cell-based;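 note: growth inhibition of NCI-H441 cells, read out with a cell viability assay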
# Description: SANGER: Inhibition of human NCI-H441 cell growth in a cell viability assay.
# [56] = system: P12-Ichikawa; assay type: functional, cell-based
# [57] = system: DBTRG-05MG; assay type: functional, cell-based;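 note: cell viability assay measuring growth inhibition of human DBTRG-05MG cells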
# Description: SANGER: Inhibition of human DBTRG-05MG cell growth in a cell viability assay.
smiles,measurement,setting,value
CCNc1cc(N[C@H]2CC[C@@H](O)CC2)nc(Nc2ccc3c(ccn3Cc3ccccc3)c2)n1,IC50,[1],> 5120 nM
same,IC50,[2],> 5120 nM
same,IC50,[3],> 5120 nM
same,IC50,[4],> 5120 nM
same,IC50,[5],> 5120 nM
same,IC50,[6],> 5120 nM
same,IC50,[7],> 5120 nM
same,IC50,[8],> 5120 nM
same,IC50,[9],> 5120 nM
same,IC50,[10],> 5120 nM
same,IC50,[11],> 5120 nM
same,IC50,[12],> 5120 nM
same,IC50,[13],> 5120 nM
same,IC50,[14],> 5120 nM
same,IC50,[15],4980 nM
COc1cc(C)c(Sc2cnc(NC(=O)c3ccc(CNC(C)C(C)(C)C)cc3)s2)cc1C(=O)N1CCN(C(C)=O)CC1 (stereo not drawn),IC50,[1],> 10200 nM
same,IC50,[2],> 10200 nM
same,IC50,[3],> 10200 nM
same,IC50,[4],> 10200 nM
same,IC50,[5],> 10200 nM
same,IC50,[6],> 10200 nM
same,IC50,[7],> 10200 nM
same,IC50,[8],> 10200 nM
same,IC50,[9],> 10200 nM
same,IC50,[10],> 10200 nM
same,IC50,[11],> 10200 nM
same,IC50,[12],> 10200 nM
same,IC50,[13],> 10200 nM
same,IC50,[14],> 10200 nM
same,IC50,[15],10000 nM
Cc1n[nH]c2ccc(-c3cncc(OC[C@@H](N)Cc4c[nH]c5ccccc45)c3)cc12 [A-443654],IC50,[1],464 nM
same,IC50,[2],> 1020 nM
same,IC50,[3],298 nM
same,IC50,[4],648 nM
same,IC50,[5],> 1020 nM
same,IC50,[6],> 1020 nM
same,IC50,[7],267 nM
same,IC50,[8],> 1020 nM
same,IC50,[9],> 1020 nM
same,IC50,[10],> 1020 nM
same,IC50,[11],> 1020 nM
same,IC50,[12],> 1020 nM
same,IC50,[13],> 1020 nM
same,IC50,[14],> 1020 nM
same,IC50,[15],128 nM
CC[C@@]1(O)C(=O)OCc2c1cc1n(c2=O)Cc2cc3ccccc3nc2-1 [CAMPTOTHECIN],IC50,[16],69.7 nM
same,IC50,[17],7.63 nM
same,IC50,[18],7.31 nM
same,IC50,[19],9.95 nM
same,IC50,[20],7.1 nM
same,IC50,[21],4.25 nM
same,IC50,[22],19.7 nM
same,IC50,[23],73.2 nM
same,IC50,[24],15 nM
same,IC50,[25],5.02 nM
same,IC50,[26],43.3 nM
same,IC50,[27],20.3 nM
same,IC50,[28],> 100 nM
same,IC50,[29],> 100 nM
same,IC50,[30],4.58 nM
same,IC50,[31],52.7 nM
same,IC50,[32],3.04 nM
same,IC50,[33],6.43 nM
same,IC50,[5],16.8 nM
same,IC50,[34],28.7 nM
same,IC50,[35],5.35 nM
same,IC50,[36],> 100 nM
same,IC50,[37],> 100 nM
same,IC50,[38],2.08 nM
same,IC50,[39],13.7 nM
same,IC50,[40],> 100 nM
same,IC50,[41],17.1 nM
same,IC50,[42],5.31 nM
same,IC50,[43],0.881 nM
same,IC50,[44],22 nM
same,IC50,[45],2.99 nM
same,IC50,[46],> 100 nM
same,IC50,[47],35.5 nM
same,IC50,[48],0.481 nM
same,IC50,[49],9.75 nM
same,IC50,[50],6.09 nM
same,IC50,[51],6.66 nM
same,IC50,[52],> 100 nM
same,IC50,[53],0.539 nM
same,IC50,[54],2.21 nM
same,IC50,[55],28.5 nM
same,IC50,[56],0.102 nM
same,IC50,[57],40.9 nM
Cc1nc(Nc2ncc(C(=O)Nc3c(C)cccc3Cl)s2)cc(N2CCN(CCO)CC2)n1 [DASATINIB],IC50,[1],> 1280 nM
same,IC50,[2],> 1280 nM
same,IC50,[3],> 1280 nM
same,IC50,[4],> 1280 nM
same,IC50,[5],> 1280 nM
same,IC50,[6],> 1280 nM
same,IC50,[7],> 1280 nM
same,IC50,[8],> 1280 nM
same,IC50,[9],> 1280 nM
same,IC50,[10],> 1280 nM
same,IC50,[11],> 1280 nM
same,IC50,[12],> 1280 nM
same,IC50,[13],> 1280 nM
same,IC50,[14],> 1280 nM
same,IC50,[15],193 nM
